From patent publication US20060088560A1, “Cosmetic use of mangiferin” (LA[…] BIOLOGIE VEGETALE YVES ROCHER, priority 2004, published 2006)

Legend:
HSP70 [1] = experiment: Preventive protection: HSP70 immunolabeling in normal human dermal fibroblasts treated with mangiferin before hot heat stress; assay type: cell-based
Experimental: (§1) Normal human dermal fibroblasts (NHDFs) are seeded (passage 3) onto glass Labtek culture chambers (8 chambers/slide) to a proportion of 10 000 cells/chamber and incubated for 10 hours in an incubator at 37° C., 5% CO2 and 95% humidity. The culture medium consists of DMEM devoid of phenol red (Invitrogen, ref. 31053028) supplemented with 10% fetal calf serum (FCS) (Invitrogen, ref 16010159, batch 40F1420D), 1% of a solution of non-essential amino acids (Invitrogen, ref 11140035), 100 μg/ml penicillin, 100 U/ml streptomycin, 2 mM L-gluthamine and 1% of a sodium pyruvate solution (Invitrogen, ref. 11360039).
The NHDFs are treated for 15 hours with mangiferin solubilized at 0.1% in DMSO, then diluted in the culture medium (DMEM with 1% FCS) to 2.10^−4%. A reference culture medium is also made on the same slide. To validate the study, a slide is treated in the same manner but the cells are not subjected to stress.
The cells are subsequently rinsed in Hanks Balanced Saline Solution (HBSS buffer Invitrogen, ref. 14025050) then placed under hot thermal stress conditions: incubation 1 hour at +45° C. in the HBSS solution (0.4 ml per chamber.).
After the stress, the cells are rinsed in the HBSS solution then incubated 8 hours in the culture medium (DMEM with 1% FCS), in an incubator at 37° C., 5% CO2 and 95% humidity.
The cells are rinsed in HBSS solution 8 hours after the stress. […]

[2] = cited from earlier work
MMP1 metalloprotease = experiment: Assay of MMP1 metalloprotease (ELISA, per viable cell unit by MTT) in NHDFs after heat stimulation; assay type: cell-based, human; conditions: mangiferin 2.10^-4% w/v, MMP1 per viable cell unit vs reference without mangiferin
Excerpt: In this example, to illustrate the inhibitive action of mangiferin on the expression of MMP enzymes, the quantity of MMP1 enzymes present in normal human dermal fibroblasts (NHDFs) after a heat stress in the presence of mangiferin was compared with the quantity obtained for NHDFs in a reference medium subjected to the same conditions but without the presence of mangiferin.
This comparison was made for different conditions of heat treatment (no stress, hot stress, cold stress).
In each case, the tested NHDFs were placed in culture then treated under the following conditions:
The first day (day D), the NHDFs were seeded to a proportion of 160 000 cells/well/mL in 24-well plates in a normal medium.
The following day (day D+1), the culture medium was depleted of serum.
When the test was conducted in the presence of mangiferin, the treatment with mangiferin was complete, i.e. the mangiferin was added to the medium to a content of 2.10^−4 g/100 mL (2.10^−4% w/v) 24 hours before the heat stress, during the heat stress and 24 hours after the onset of heat stress.
On the contrary, no mangiferin at all was added to the references.
After these steps, 24 hours after the heat stress, the MMP1 present in the medium was assayed using a quantitative technique of ELISA type, with a commercial Amersham kit. In parallel, the number of viable cells in the medium was determined using the MTT colorimetric test. On the basis of these elements, a MMP1 content was determined per viable cell unit.
For each of the heat treatment conditions, a reduction in MMP1 content was observed per viable cell unit in the presence of mangiferin, compared with the content obtained in the references without mangiferin. In this respect, a percentage inhibition of MMP1 expression (Pi) is defined which is calculated using the following formula: Pi(as %)=(Tt−Tm)/Tt in which: • Tm designates the MMP1 content per viable cell unit in the presence of mangiferin; • Tt designates the MMP1 content per viable cell unit for the reference without mangiferin under the same heat treatment conditions.

HSP70 [3] = experiment: Curative protection: HSP70 immunolabeling in normal human dermal fibroblasts treated with mangiferin after hot heat stress; assay type: cell-based
Experimental: as §1, with “The” for “Normal human dermal”, “(NHDFS)” for “(NHDFs)”
The NHDFs are rinsed in the HBSS solution then incubated 15 hours in the culture medium (DMEM with 1% FCS), in an incubator at 37° C., 5% CO2 and 95% humidity.
The cells are subsequently rinsed in an HBSS solution (Invitrogen, ref. 14025050) then placed under conditions of hot thermal stress: incubation 1 hour at +45° C. in the HBSS solution (0.4 ml per chamber).
After the stress, the cells are rinsed in the HBSS solution then treated for 8 hours with the mangiferin solubilized in the DMSO, then diluted in the culture medium (DMEM with 1% FCS) to 2.10^−4%. A reference culture medium is also made on the same slide.
The cells are rinsed in an HBSS solution 8 hours after the stress. The culture chambers are removed and the cells left to dry under a laminar flow hood. […]

Compound: O=c1c2cc(O)c(O)cc2oc2cc(O)c([C@@H]3O[C@H](CO)[C@@H](O)[C@H](O)[C@H]3O)c(O)c12 [mangiferin, C-glucoside of tetrahydroxy-1,3,6,7 xanthone]
- Labeling of the HSP70s (HSP70 [1]; NHDFs treated with mangiferin 2.10^-4% for 15 hours before stress (1 hour at +45° C.), read 8 hours after stress, vs untreated stressed cells): further intensified
- Basic expression of the HSP70s (labeling) (HSP70 [1]; NHDFs, no stress, mangiferin 2.10^-4% for 15 hours): not modified
- Solubility in alkaline liquids ([2]; alkaline liquids (salt formation by phenol OH groups)): soluble
- Solubility in cold water ([2]; cold water): scarcely soluble
- Percentage inhibition Pi of MMP1 expression (MMP1 metalloprotease; Cold heat stress: 10 min at −20° C.): 22%
- Percentage inhibition Pi of MMP1 expression (MMP1 metalloprotease; Hot heat stress: 30 min at +45° C.): 51%
- Percentage inhibition Pi of MMP1 expression (MMP1 metalloprotease; Hot heat stress: 30 min at +50° C.): 40%
- Percentage inhibition Pi of MMP1 expression (MMP1 metalloprotease; Hot heat stress: 1 h at +45° C.): 36%
- Percentage inhibition Pi of MMP1 expression (MMP1 metalloprotease; No heat stress: 1 h at +37° C.): 34%
- Labeling of the HSP70s (HSP70 [3]; NHDFs treated with mangiferin 2.10^-4% for 8 hours after stress (1 hour at +45° C.), vs untreated stressed cells): reduced
- Basic expression of the HSP70s (labeling) (HSP70 [3]; NHDFs, no stress, mangiferin 2.10^-4% for 8 hours): not modified
